Measurements from patent publication US20090036441A1, “Indole Derivatives With Antitumor Activity” (Cell Therapeutics Europe S.R.L., priority 2004, published 2009).
Blank lines part the entries; values can stand above or below the molecule they belong to.

Legend:
[1] = biological target: T1, Biot-Hif-1α^786-826/GST-p300^323/423 (Homo sapiens, UniProt Q09472); assay: Primary biochemical assay (DELFIA fluorescence) for inhibition of the Hif-1α/p300 interaction; format: binding; conditions: 10 concentrations from 90 μM to 0.178 μM, 1 h at 25° C.
T1 construct: the p300 region ranging from amino acids 323 to 423; fragment corresponding to C-terminal 786-826 amino acids; host or cells: E. coli BL21 (DE3), vector pGEX-4T-1
T1 sequence (Q09472 323-423): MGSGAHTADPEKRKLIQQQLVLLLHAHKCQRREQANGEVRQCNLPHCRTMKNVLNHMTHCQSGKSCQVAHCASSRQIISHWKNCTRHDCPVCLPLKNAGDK
Description: Primary Biochemical Assay for the Inhibition of Biot-Hif-1α^786-826/GST-p300^323/423
The compounds were evaluated for their ability to inhibit the interaction between Hif-1α and p300 using a fluorescence assay (DELFIA™). The procedure described by Freedman S J at al., Nature Structural Biology 2003, 10 (7), 504-512 was suitably modified.
The human biotinylated Hif-1α fragment corresponding to C-terminal 786-826 amino acids (Biotinylated Hif-1α^786-826) was obtained from AnaSpec Inc (San Jose, Calif., USA) and used without further purifications.
A construct expressing the GST-p300^323-423 fragment was transformed in the BL21 (DE3) strain of E. coli. Said construct was obtained by cloning in the expression vector pGEX-4T-1 (Amersham No. 27-45-80-01) the DNA sequence which encodes for the p300 region ranging from amino acids 323 to 423; the DNA sequence was obtained by PCR (Polymerase Chain Reaction). The protein region was induced with 1 mM isopropyl-1-tio-β-D-galactopyranoside (IPTG). The bacteria were lysed by sonication in the presence of a suitable buffer (50 mM Tris*HCl pH 8.00, 100 mM NaCl, 0.1 mM ZnSO4, 1 mM DTT, 0.1 mg/ml lysozyme and a tablet of Complete EDTA-free Protease Inhibitor Cocktail Tablets (Roche, catalogue number 1 873 580)) and the GST fusion protein present in the soluble fraction was purified on a Glutathione-Sepharose 4B resin (Amersham Biosciences; no. 27-4574-01). The protein final concentration was determined according to Bradford with the Biorad assay (Bradford M., Anal. Biochem., 72, 248, (1976)). The purity of the sample was evaluated by SDS-PAGE. Samples were stored at −80° C. in 50% glycerol.
The assay was carried out using NUNC Maxisorp 96 wells plates as follows.
C96 NUNC Maxisorp plates (from Nunc, product No. 446612) were incubated overnight with streptavidin (Sigma; product No. S 4762) to a final concentration of 1 μg/ml in PBS buffer (Phosphate Buffered Saline 10 mM sodium phosphate, 150 mM sodium chloride pH 7.4). Each well was subsequently washed with 3×300 μl of TBST buffer (50 mM Tris*HCl pH 8.0, 150 mM NaCl, 0.05% (v/v) Tween 20). Each well was then added with 100 μl of a 10 nM solution of biotinylated Hif-1α^786-826 in TBSB (50 mM Tris-HCl pH 8.0, 150 mM NaCl, 5% (w/v) BSA (Sigma, product No. A 2153)) and incubated for 1 h at 25° C. In the last row of each plate, only the TBSB buffer was added. Each well was subsequently washed three times with 300 μl of TBST buffer. The thus prepared plate represented the assay plate.
Separately, the plate (daughter plate) containing in each well 10 μl of each test compound dissolved in DMSO to a concentration of 10 μM was prepared. This plate was added with 100 μl of a 111 pM solution of GST-p300^323-423 diluted in the incubation buffer (TBSB added with 0.1% (v/v) Tween 20, 0.5 mM DTT, 10 μM ZnCl2) and the whole was mixed. 100 μl of the mixture contained in the daughter plate were immediately transferred to the assay plate.
Each daughter plate was prepared with 80 different compounds at a 10 μM concentration, safe for the two last well rows, wherein each well was added with 10 μl of DMSO. These two rows represented the positive (row 11, +Hif-1) and negative (row 12, −Hif-1) controls.
After incubation for 1 h at 25° C., each well was washed with 3×300 μl of TBST buffer (50 mM Tris-HCl pH 8.0. 150 mM NaCl, 0.05% (v/v) Tween 20). Each well was then added with 60.8 ng of an europium-labelled anti-GST antibody (DELFIA Eu-N1 labeled; Perkin Elmer; product no. A D 0251) dissolved in 100 μl of TBST buffer containing 10 μM ZnCl2. After incubation for 1 h at room temperature, each well was washed with 3×300 μl of TBST buffer, then 100 μl of signal amplification solution (Enhancement Solution, Perkin Elmer product No. 1244-105) were added.
The plates were then read using a FUSION alpha-FP-HT reader (Perkin Elmer) in fluorescence mode for time resolution.
The activity of the compounds was calculated as follows. […]

[2] = system: secreted VEGF (Hep3B-VEGFLuciferase cells); assay: Secreted VEGF ELISA test in Hep3B-VEGFLuciferase cells, deferoxamine-induced hypoxia; format: cell-based; conditions: Homo sapiens, supernatant, deferoxamine about 100 μM, 18-20 hours, 50% reduction of secreted VEGF
Description: (§1) The compounds having inhibitory activity in the Hif-1α/p300 assay described above were evaluated using a cellular test on genetically modified human hepatocarcinoma Hep3B cells (Hep3B-VEGFLuciferase) in order to stably express a vector in which the Open Reading Frame of firefly Luciferase was under the control of the rat VEGF gene promoter.
(§2) The Hep-3B-VEGFLuciferase cell line was obtained according to the following procedure.
(§3) Human hepatocarcinoma cells Hep-3B (ATCC reference No. HB-8064) were seeded onto 6 wells plates at a concentration of 2.5×10^5 cells/well in 2 ml DMEM/10% FCS and the following day were transfected using Fugene 6 (Roche Biochemicals®). In each well, the transfection mixtures contained 6 μl of the transfection reagent Fugene 6, 1 μg of the pxp2-VEGF-luciferase reporter plasmid (VEGF rat promoter, NCBI GenBank No. of accession U22373, Levy et al., J. Biol. Chem. 270 (22), 13333-13340. 1995), and 10 ng of pcDNA3.1(+)plasmid (INVITROGEN) which makes cells resistant to neomycin. Transfection was carried out according to the manufacturer's instructions.
(§4) A suitable cell population (phenotypically resistant to neomycin) was selected by means of a cloning approach based on the “dilution limit” procedure (Sambrook J., Fritsch E. F. and Maniatis T. (1989) Molecular Cloning, A Laboratory Manual; Cold Spring Harbor Laboratories). The subsequent assays for Luciferase expression/activity “Luciferase assay” and for the quantification of secreted VEGF in the supernatant “ELISA secreted VEGF test”) were carried out with the stably transfected selected cells.
(§5) The following experimental protocol was used:
(§6) Day 1. Hep-3B-VEGF Luciferase cells were seeded onto 96-wells “blank” plates (a product by Greiner) at a density of 1×10^4 cells/well/125 μl of medium, then left to adhere overnight in thermostat (37° C./5% CO2).
(§7) Day 2. 75 μl of “3.2× working solutions” of compound (previously prepared in culture medium so that the DMSO concentration is 1.6% v/v) were added to the cells (partial volume/well=200 μl, partial concentration of compound=1.2×, partial concentration of DMSO=0.6%). After 1 hour incubation in thermostat, hypoxia was induced chemically by addition of 40 μl/well of a 6× (600 μM) stock solution of deferoxamine (final volume/well=240 μl, final concentration of compound=1×, final concentration of DMSO=0.5%, final concentration of deferoxamine=1×≈100 μM). The plates were then thermostated for further 18-20 hours.
(§8) Day 3. The “Luciferase assay” and the “secreted VEGF ELISA test” were carried out as follows.
“Secreted VEGF ELISA Test”
Quantification of secreted VEGF was performed using the kit “DuoSet Elisa Development System human VEGF” kit (R&D Systems). 100 μl/well of the supernatant from the “blank” 96 well-plates with the cells of the Hep3B/VEGF Luciferase clone were transferred into transparent 96-well plates of (Maxisorp) and assayed according to the indications of the kit manufacturer.
(§9) IC50 values (concentration of the compound that causes 50% inhibition of the luciferase signal or 50% reduction of secreted VEGF) for some compounds of the invention are reported in table 2: […]

[3] = system: VEGF promoter (rat VEGF gene promoter, Hep3B-VEGFLuciferase cells); assay: Luciferase assay in Hep3B-VEGFLuciferase cells, deferoxamine-induced hypoxia; format: cell-based; conditions: Homo sapiens, deferoxamine about 100 μM, 18-20 hours, 50% inhibition of the luciferase signal
Description: as §1
Hif-1 Induction using deferoxamine (which induces hypoxia) induces luciferase transcription through activation of the VEGF promoter, which in turn causes an increase in luciferase activity, which can be measured with a commercially available kit. The compounds interfering with the Hif-1α/p300 complex inhibit Hif-dependent luciferase activation, resulting in a reduction of luciferase activity. This assay therefore allows to evaluate the activity of the compounds towards the VEGF promoter, which is essential to VEGF production and the subsequent tumor angiogenesis.
as §2, §3, §4, §5, §6, §7, §8
Quantification of the expression of the Luciferase reporter gene was performed by means of the Bright Glo Reagent (Promega). After removing the supernatant and washing once with PBS, 40 μl/well of Bright Glo Reagent were added to blank 96-well plates with Hep3B/VEGF-Luciferase cells. The expression levels of the reporter gene were determined by reading the plates with a luminometer.
as §9

SMILES: CCOC(=O)c1c2c(n(C)c1CO)C(=O)C(=O)c1ccc(Br)cc1-2 [12(a), Ethyl 8-bromo-2-hydroxymethyl-3-methyl-4,5-dioxo-4,5-dihydro-3H-benzo[e]indole-1-carboxylate]
- IC50 [1]: 14.2 µM
- IC50 [2]: 2.03 µM
- IC50 [3]: 0.32 µM

SMILES: CCOC(=O)c1c2c(n(C)c1CN(CC)CC)C(=O)C(=O)c1ccc(Br)cc1-2 [12(b), Ethyl 8-bromo-2-diethylaminomethyl-3-methyl-4,5-dioxo-4,5-dihydro-3H-benzo[e]indole-1-carboxylate]
- IC50 [1]: 13.3 µM
- IC50 [2]: 2.03 µM
- IC50 [3]: 0.32 µM

SMILES: CCOC(=O)c1c(C)[nH]c2c1-c1cc(Br)ccc1C(=O)C2=O [Example 1, Ethyl 8-bromo-2-methyl-4,5-dioxo-4,5-dihydro-3H-benzo[e]indole-1-carboxylate]
- IC50 [1]: 13.2 µM
- IC50 [2]: 5.78 µM
- IC50 [3]: 0.45 µM

SMILES: CCOC(=O)c1c2c(n(C)c1CN1CCOCC1)C(=O)C(=O)c1ccc(Br)cc1-2 [Example 4, Ethyl 8-bromo-3-methyl-2-(morpholin-4′-yl)methyl-4,5-dioxo-4,5-dihydro-3H-benzo[e]indole-1-carboxylate]
- IC50 [1]: 11 µM
- IC50 [2]: 4.8 µM
- IC50 [3]: 1.1 µM

SMILES: CCOC(=O)c1c2c(n(C)c1CNC(C)C)C(=O)C(=O)c1ccc(Br)cc1-2 [Example 6, Ethyl 8-bromo-2-isopropylaminomethyl-3-methyl-4,5-dioxo-4,5-dihydro-3H-benzo[e]indole-1-carboxylate]
- IC50 [1]: 9.1 µM
- IC50 [2]: 0.3 µM
- IC50 [3]: 0.3 µM

SMILES: CCOC(=O)c1c2c(n(CC(=O)OC(C)(C)C)c1C)C(=O)C(=O)c1ccc(Br)cc1-2 [Example 7, Ethyl 8-bromo-3-tert-butoxycarbonylmethyl-2-methyl-4,5-dioxo-4,5-dihydro-3H-benzo[e]indole-1-carboxylate]
- IC50 [1]: 14.9 µM
- IC50 [2]: 9.3 µM
- IC50 [3]: 1.6 µM

SMILES: CCOC(=O)c1c2c(n(CC(=O)O)c1C)C(=O)C(=O)c1ccc(Br)cc1-2 [Example 8, Ethyl 8-bromo-3-carboxymethyl-2-methyl-4,5-dioxo-4,5-dihydro-3H-benzo[e]indole-1-carboxylate]
- IC50 [1]: 32.9 µM
- IC50 [2]: > 12.5 µM
- IC50 [3]: > 12.5 µM

SMILES: CCOC(=O)c1c2c(n(CC(N)=O)c1C)C(=O)C(=O)c1ccc(Br)cc1-2 [Example 9, Ethyl 8-bromo-3-carbamoylmethyl-2-methyl-4,5-dioxo-4,5-dihydro-3H-benzo[e]indole-1-carboxylate]
- IC50 [1]: 9.6 µM
- IC50 [2]: > 12.5 µM
- IC50 [3]: 0.6 µM

The next molecules have a lower IC50 [1] than those just listed; values first:

- IC50 [1]: 7.3 µM
- IC50 [2]: 14.5 µM
- IC50 [3]: 1.08 µM
SMILES: CCOC(=O)c1c2c(n(Cc3ccccc3)c1C)C(=O)C(=O)c1ccc(Br)cc1-2 [12(c), Ethyl 8-bromo-2-methyl-3-benzyl-4,5-dioxo-4,5-dihydro-3H-benzo[e]indole-1-carboxylate]

- IC50 [1]: 3.3 µM
- IC50 [2]: 10.7 µM
- IC50 [3]: 0.47 µM
SMILES: CCOC(=O)c1c2c(n(C)c1C)C(=O)C(=O)c1ccc(Br)cc1-2 [Example 3, Ethyl 8-bromo-2,3-dimethyl-4,5-dioxo-4,5-dihydro-3H-benzo[e]indole-1-carboxylate]

- IC50 [1]: 1.5 µM
- IC50 [2]: 1.2 µM
- IC50 [3]: 0.26 µM
SMILES: CCOC(=O)c1c2c(n(C)c1CN(C)C)C(=O)C(=O)c1ccc(Br)cc1-2 [Example 5, Ethyl 8-bromo-2-dimethylaminomethyl-3-methyl-4,5-dioxo-4,5-dihydro-3H-benzo[e]indole-1-carboxylate]
